Results published in US10988477B2 (Merck Patent GmbH, priority 2018, dated 2021).
Like-named read-outs stand apart in the source and are kept apart here.

Tests used:
[1] = target: intracellular GCN2 (phosphorylation of the GCN2 substrate eIF2α) (Homo sapiens, UniProt Q9P2K8); assay: GCN2 cellular inhibition assay (AlphaScreen SureFire P-eIF2α Ser51, borrelidin-treated U2OS cells); type: cell-based
Procedure, shortened: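 Compound effect on GCN2 is gauged by eIF2α Ser51 phosphorylation in borrelidin-challenged U2OS cells (10 μM, 1 h). Top compound level is 40 μM final.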

GCN2 kinase = GCN2 kinase (Homo sapiens, UniProt Q9P2K8); assay: GCN2 enzyme inhibition assay (Transcreener ADP2 fluorescence polarization); type: biochemical; conditions: 280 μM ATP
Sequence of GCN2 kinase (Q9P2K8 whole entry): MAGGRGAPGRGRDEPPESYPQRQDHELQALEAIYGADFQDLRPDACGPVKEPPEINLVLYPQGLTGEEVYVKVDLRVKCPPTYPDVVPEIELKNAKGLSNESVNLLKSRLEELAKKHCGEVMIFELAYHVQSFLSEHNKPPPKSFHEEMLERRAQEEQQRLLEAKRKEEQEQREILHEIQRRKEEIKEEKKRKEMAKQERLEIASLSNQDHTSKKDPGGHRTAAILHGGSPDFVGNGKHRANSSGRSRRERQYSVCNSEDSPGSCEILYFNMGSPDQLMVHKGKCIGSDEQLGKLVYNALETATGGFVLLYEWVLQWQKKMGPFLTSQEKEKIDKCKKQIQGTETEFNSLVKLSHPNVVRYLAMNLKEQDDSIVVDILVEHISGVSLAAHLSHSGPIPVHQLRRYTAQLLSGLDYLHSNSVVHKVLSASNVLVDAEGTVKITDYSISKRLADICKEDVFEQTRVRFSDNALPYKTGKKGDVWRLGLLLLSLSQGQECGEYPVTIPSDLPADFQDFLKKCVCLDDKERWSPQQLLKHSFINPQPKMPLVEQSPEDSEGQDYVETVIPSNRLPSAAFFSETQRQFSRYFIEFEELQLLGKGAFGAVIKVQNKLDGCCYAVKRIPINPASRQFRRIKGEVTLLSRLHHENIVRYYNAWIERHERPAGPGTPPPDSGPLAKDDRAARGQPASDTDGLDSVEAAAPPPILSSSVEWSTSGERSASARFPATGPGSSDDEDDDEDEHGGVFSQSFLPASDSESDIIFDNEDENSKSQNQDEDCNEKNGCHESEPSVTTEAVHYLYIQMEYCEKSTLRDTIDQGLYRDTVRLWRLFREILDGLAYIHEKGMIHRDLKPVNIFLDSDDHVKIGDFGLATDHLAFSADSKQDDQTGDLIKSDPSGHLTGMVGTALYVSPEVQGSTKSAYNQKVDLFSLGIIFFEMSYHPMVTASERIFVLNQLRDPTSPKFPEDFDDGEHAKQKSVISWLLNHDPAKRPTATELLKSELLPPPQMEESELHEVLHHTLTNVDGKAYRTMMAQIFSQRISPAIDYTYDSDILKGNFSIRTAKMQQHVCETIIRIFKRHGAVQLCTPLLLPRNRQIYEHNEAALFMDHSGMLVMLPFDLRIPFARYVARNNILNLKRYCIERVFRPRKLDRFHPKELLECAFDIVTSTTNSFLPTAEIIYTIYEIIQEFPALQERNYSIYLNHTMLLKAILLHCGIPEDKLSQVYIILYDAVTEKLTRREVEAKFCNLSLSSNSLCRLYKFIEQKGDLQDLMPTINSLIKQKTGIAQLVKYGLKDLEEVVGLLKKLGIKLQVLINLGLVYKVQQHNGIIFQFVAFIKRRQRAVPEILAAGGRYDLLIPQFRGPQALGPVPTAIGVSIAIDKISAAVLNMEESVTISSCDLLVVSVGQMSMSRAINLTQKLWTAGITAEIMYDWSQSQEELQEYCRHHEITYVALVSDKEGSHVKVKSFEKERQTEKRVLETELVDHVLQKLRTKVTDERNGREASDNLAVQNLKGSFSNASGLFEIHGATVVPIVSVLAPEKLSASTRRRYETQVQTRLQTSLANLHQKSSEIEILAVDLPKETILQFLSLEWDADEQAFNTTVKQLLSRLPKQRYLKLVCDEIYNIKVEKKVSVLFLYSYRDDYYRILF
Procedure, shortened: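 4 nM GCN2 + 200 μM (RS)7 + compound (0–8 μM), 10 min preinc.; start with ATP (280 μM final); 1 h, 25 °C; pH 7.5 Tris/NaCl/MgCl2/DTT; ADP FP readout; IC50, Ki(app) via tight-binding fit.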

[2] = compounds of Formula IV, biomarker assay, phosphorylated eIF2α Ser51 in borrelidin-treated U2OS cells
[3] = Enzyme activity for compounds of Formula IV, Ki(app), 25° C.
[4] = compounds of Formula V, U2OS cells, 10 μM borrelidin, 1 h, read-out: GCN2 Biomarker (IC50)
[5] = compounds of Formula V, 4 nM GCN2 kinase
[6] = compounds of Formula II, biomarker assay, phosphorylated eIF2α Ser51 in borrelidin-treated U2OS cells
[7] = compounds of Formula II, 4 nM GCN2 kinase

Sequence of intracellular GCN2 (phosphorylation of the GCN2 substrate eIF2α) (Q9P2K8 whole entry): as above

For `Cc1cc(N2CC(C)NC(c3cn[nH]c3)C2C)nc(-c2cnc3cnc(C(F)(F)F)cn23)n1` (single isomer, unassigned) [IV-670, 3-(4-(2,5-Dimethyl-3-(1H-pyrazol-4-yl)piperazin-1-yl)-6-methylpyrimidin-2-yl)-6-(trifluoromethyl)imidazo[1,2-a]pyrazine], the IC50 [1, 2] was 500 to 5000 nM and the Ki (GCN2 kinase; [3]) was under 10 nM.
With `CC1CN(c2ccnc(-c3cnc4cnc(C(F)(F)F)cn34)n2)C(C)C(c2c[nH]c(C(F)(F)F)n2)N1` (single isomer, unassigned) [IV-673, 3-(4-(2,5-Dimethyl-3-(2-(trifluoromethyl)-1H-imidazol-4-yl)piperazin-1-yl)pyrimidin-2-yl)-6-(trifluoromethyl)imidazo[1,2-a]pyrazine] the IC50 [1, 2] was 500 to 5000 nM and the Ki (GCN2 kinase; [3]) was under 10 nM.
`CC(C)(O)C1CC(c2cn[nH]c2)CN(c2ccnc(-c3cnc4cnc(C(F)(F)F)cn34)n2)C1` (single isomer, unassigned) [IV-682, 2-(5-(1H-Pyrazol-4-yl)-1-(2-(6-(trifluoromethyl)imidazo[1,2-a]pyrazin-3-yl)pyrimidin-4-yl)piperidin-3-yl)propan-2-ol] showed an IC50 [1, 2] of 500 to 5000 nM and a Ki (GCN2 kinase; [3]) of 10 to 100 nM.
`CC(C)(O)C1CC(c2cn[nH]c2)CN(c2ccnc(-c3cnc4cnc(C(F)(F)F)cn34)n2)C1` (single isomer, unassigned) [IV-683, 2-(5-(1H-Pyrazol-4-yl)-1-(2-(6-(trifluoromethyl)imidazo[1,2-a]pyrazin-3-yl)pyrimidin-4-yl)piperidin-3-yl)propan-2-ol] gave an IC50 [1, 2] of 500 to 5000 nM and a Ki (GCN2 kinase; [3]) of 10 to 100 nM.
For `CC(C)(O)C1CC(c2cn[nH]c2)CN(c2ccnc(-c3cnc4cnc(C(F)(F)F)cn34)n2)C1` (single isomer, unassigned) [IV-684, 2-(5-(1H-Pyrazol-4-yl)-1-(2-(6-(trifluoromethyl)imidazo[1,2-a]pyrazin-3-yl)pyrimidin-4-yl)piperidin-3-yl)propan-2-ol], the IC50 [1, 2] was under 500 nM and the Ki (GCN2 kinase; [3]) was under 10 nM.
`CC(C)(O)C1CC(c2cn[nH]c2)CN(c2ccnc(-c3cnc4cnc(C(F)(F)F)cn34)n2)C1` (single isomer, unassigned) [IV-685, 2-(5-(1H-Pyrazol-4-yl)-1-(2-(6-(trifluoromethyl)imidazo[1,2-a]pyrazin-3-yl)pyrimidin-4-yl)piperidin-3-yl)propan-2-ol] was tested, and the IC50 [1, 2] was under 500 nM and the Ki (GCN2 kinase; [3]) was under 10 nM.
`C[C@H]1CN(c2ccnc(-c3cnc4sc(C(F)F)cn34)n2)C[C@@H](CNS(C)(=O)=O)C1(F)F` (stereo in doubt) [Compound V-1, N-((-1-(2-(2-(Difluoromethyl)imidazo[2,1-b]thiazol-5-yl)pyrimidin-4-yl)-4,4-difluoro-5-methylpiperidin-3-yl)methyl)methanesulfonamide] was tested, and the IC50 [1, 4] was 500 to 5000 nM and the Ki (GCN2 kinase; [5]) was under 10 nM.
In the case of `FC(F)(F)c1cn2c(-c3nccc(N4CCO[C@H](c5cn[nH]c5)C4)n3)cnc2s1` (stereo in doubt) [Compound V-3, 2-(1H-Pyrazol-4-yl)-4-(2-(2-(trifluoromethyl)imidazo[2,1-b]thiazol-5-yl)pyrimidin-4-yl)morpholine], the IC50 [1, 4] is reported as under 500 nM and the Ki (GCN2 kinase; [5]) is reported as under 10 nM.
`FC(F)(F)c1cn2c(-c3nccc(N4CCO[C@@H](c5cn[nH]c5)C4)n3)cnc2s1` (stereo in doubt) [Compound V-4, 2-(1H-pyrazol-4-yl)-4-(2-(2-(trifluoromethyl)imidazo[2,1-b]thiazol-5-yl)pyrimidin-4-yl)morpholine] gave an IC50 [1, 4] of 500 to 5000 nM and a Ki (GCN2 kinase; [5]) of 10 to 100 nM.
`FC(F)(F)c1cn2c(-c3nccc(N4CCC(c5cn[nH]c5)C4)n3)cnc2s1` (stereo not drawn) [Compound V-7, 5-[4-[3-(1H-Pyrazol-4-yl)pyrrolidin-1-yl]pyrimidin-2-yl]-2-(trifluoromethyl)imidazo[2,1-b]thiazole] gave an IC50 [1, 4] of 500 to 5000 nM and a Ki (GCN2 kinase; [5]) of 10 to 100 nM.
In the case of `NC(=O)[C@H]1CCCN(c2ccnc(-c3cnc4sc(C(F)(F)F)cn34)n2)C1` [Compound V-10, (3S)-1-[2-[2-(Trifluoromethyl)imidazo[2,1-b]thiazol-5-yl]pyrimidin-4-yl]piperidine-3-carboxamide], the IC50 [1, 4] is reported as under 500 nM and the Ki (GCN2 kinase; [5]) is reported as under 10 nM.
Work on `CC1CN(c2ccnc(-c3cnc4sc(C(F)(F)F)cn34)n2)C(C)C(c2cn[nH]c2)N1` (stereo not drawn) [Compound V-13, 5-[4-[2,5-Dimethyl-3-(1H-pyrazol-4-yl)piperazin-1-yl]pyrimidin-2-yl]-2-(trifluoromethyl)imidazo[2,1-b]thiazole] yielded an IC50 [1, 4] of under 500 nM and a Ki (GCN2 kinase; [5]) of under 10 nM.
`CC1CN(c2ccnc(-c3cnc4sc(C(F)F)cn34)n2)CC(CNS(C)(=O)=O)C1(F)F` (stereo not drawn) [Compound V-14, N-[[1-[2-[2-(Difluoromethyl)imidazo[2,1-b]thiazol-5-yl]pyrimidin-4-yl]-4,4-difluoro-5-methyl-3-piperidyl]methyl]methanesulfonamide] was tested, and the IC50 [1, 4] was 500 to 5000 nM and the Ki (GCN2 kinase; [5]) was 10 to 100 nM.
For `FC(F)(F)c1cn2c(-c3nccc(N4CCOC(c5cn[nH]c5)C4)n3)cnc2s1` (stereo not drawn) [Compound V-15, 2-(1H-Pyrazol-4-yl)-4-[2-[2-(trifluoromethyl)imidazo[2,1-b]thiazol-5-yl]pyrimidin-4-yl]morpholine], the IC50 [1, 4] was under 500 nM and the Ki (GCN2 kinase; [5]) was under 10 nM.
`CC1CC(CS(C)(=N)=O)C(C)N(c2ccnc(-c3cnc4sc(C(F)(F)F)cn34)n2)C1` (stereo not drawn) [Compound V-16, ((2,5-Dimethyl-1-(2-(2-(trifluoromethyl)imidazo[2,1-b]thiazol-5-yl)pyrimidin-4-yl)piperidin-3-yl)methyl)(imino)(methyl)-λ^6-sulfanone] was tested, and the IC50 [1, 4] was over 5000 nM and the Ki (GCN2 kinase; [5]) was 100 to 1000 nM.
In the case of `CC1CC(CS(C)(=N)=O)C(C)N(c2ccnc(-c3cnc4sc(C(F)(F)F)cn34)n2)C1` (stereo not drawn) [Compound V-17, ((2,5-Dimethyl-1-(2-(2-(trifluoromethyl)imidazo[2,1-b]thiazol-5-yl)pyrimidin-4-yl)piperidin-3-yl)methyl)(imino)(methyl)-λ^6-sulfanone], the IC50 [1, 4] is reported as 500 to 5000 nM and the Ki (GCN2 kinase; [5]) is reported as 10 to 100 nM.
Compound `FC(F)(F)c1cn2c(-c3nccc(N4CCOC(c5cn[nH]c5)C4)n3)cnc2s1` (stereo not drawn) [Compound V-20, 2-(1H-pyrazol-4-yl)-4-(2-(2-(trifluoromethyl)imidazo[2,1-b]thiazol-5-yl)pyrimidin-4-yl)morpholine] has an IC50 [1, 4] of under 500 nM and a Ki (GCN2 kinase; [5]) of under 10 nM.
With `CC1CCC(CNS(C)(=O)=O)CN1c1cc(-c2cnc3ccc(C(F)F)nn23)ncn1` (stereo not drawn) [II-3, N-((1-(6-(6-(Difluoromethyl)imidazo[1,2-b]pyridazin-3-yl)pyrimidin-4-yl)-6-methylpiperidin-3-yl)methyl)methanesulfonamide] the IC50 [1, 6] was 500 to 5000 nM and the Ki (GCN2 kinase; [7]) was under 10 nM.
Compound `FC(F)c1ccc2ncc(-c3cc(N4CCOC(c5cn[nH]c5)C4)ncn3)n2n1` (stereo not drawn) [II-4, 4-(6-(6-(Difluoromethyl)imidazo[1,2-b]pyridazin-3-yl)pyrimidin-4-yl)-2-(1H-pyrazol-4-yl)morpholine] has an IC50 [1, 6] of 500 to 5000 nM and a Ki (GCN2 kinase; [7]) of 10 to 1000 nM.
With `CN1C(=O)CN(c2cc(-c3cnc4ccc(C(F)F)nn34)ncn2)C[C@H]1CNS(C)(=O)=O` [II-7, (S)—N-((4-(6-(6-(Difluoromethyl)imidazo[1,2-b]pyridazin-3-yl)pyrimidin-4-yl)-1-methyl-6-oxopiperazin-2-yl)methyl)methanesulfonamide] the IC50 [1, 6] was over 5000 nM and the Ki (GCN2 kinase; [7]) was over 1000 nM.
`CC1CC(CNS(C)(=O)=O)CN1c1cc(-c2cnc3ccc(C(F)F)nn23)ncn1` (stereo not drawn) [II-8, N-((1-(6-(6-(Difluoromethyl)imidazo[1,2-b]pyridazin-3-yl)pyrimidin-4-yl)-5-methylpyrrolidin-3-yl)methyl)methanesulfonamide] showed an IC50 [1, 6] of 500 to 5000 nM and a Ki (GCN2 kinase; [7]) of 10 to 1000 nM.
`OC[C@@H]1CN(c2cc(-c3cnc4ccc(C(F)F)nn34)ncn2)CCO1` [II-9, (S)-(4-(6-(6-(Difluoromethyl)imidazo[1,2-b]pyridazin-3-yl)pyrimidin-4-yl)morpholin-2-yl)methanol] was tested, and the IC50 [1, 6] was 500 to 5000 nM and the Ki (GCN2 kinase; [7]) was 10 to 1000 nM.
`CS(C)(=O)=NC[C@@H]1CN(c2cc(-c3cnc4ccc(C(F)F)nn34)ncn2)CCO1` [II-10, [(2S)-4-[6-[6-(Difluoromethyl)imidazo[1,2-b]pyridazin-3-yl]pyrimidin-4-yl]morpholin-2-yl]methylimino-dimethyl-oxo-sulfane] was tested, and the IC50 [1, 6] was over 5000 nM and the Ki (GCN2 kinase; [7]) was 10 to 1000 nM.
`CS(=O)(=O)NCC1CN(c2cc(-c3cnc4ccc(C(F)F)nn34)ncn2)c2ccccc21` (stereo not drawn) [II-11, N-((1-(6-(6-(Difluoromethyl)imidazo[1,2-b]pyridazin-3-yl)pyrimidin-4-yl)indolin-3-yl)methyl)methanesulfonamide] gave an IC50 [1, 6] of over 5000 nM and a Ki (GCN2 kinase; [7]) of 10 to 1000 nM.
Compound `CS(=O)(=O)NCC1CC(O)CN(c2cc(-c3cnc4ccc(C(F)F)nn34)ncn2)C1` (stereo not drawn) [II-12, N-((1-(6-(6-(Difluoromethyl)imidazo[1,2-b]pyridazin-3-yl)pyrimidin-4-yl)-5-hydroxypiperidin-3-yl)methyl)methanesulfonamide] has an IC50 [1, 6] of 500 to 5000 nM and a Ki (GCN2 kinase; [7]) of 10 to 1000 nM.
For `CS(=O)(=O)NCC1CC(O)CN(c2cc(-c3cnc4ccc(C(F)F)nn34)ncn2)C1` (stereo not drawn) [II-13, N-((1-(6-(6-(Difluoromethyl)imidazo[1,2-b]pyridazin-3-yl)pyrimidin-4-yl)-5-hydroxypiperidin-3-yl)methyl)methanesulfonamide], the IC50 [1, 6] was 500 to 5000 nM and the Ki (GCN2 kinase; [7]) was under 10 nM.
Work on `CS(=O)(=O)N1CCCC(c2cc(-c3cnc4ccc(C(F)F)nn34)ncn2)CC1` (stereo not drawn) [II-14, 6-(Difluoromethyl)-3-(6-(1-(methylsulfonyl)azepan-4-yl)pyrimidin-4-yl)imidazo[1,2-b]pyridazine] yielded an IC50 [1, 6] of over 5000 nM and a Ki (GCN2 kinase; [7]) of 10 to 1000 nM.
